Where two headings read alike, the source gives them in different places.
Columns and labels:
primary AML cells = experiment: Monocytic differentiation (CD14) in primary AML; format: cell-based, human
Method: (§1) Immunophenotyping. The PE-conjugated anti-CD11b, FITC-conjugated anti-CD14 monoclonal antibody (mAb) (Becton Dickinson) and PE-conjugated anti-CD95 mAb (PharMingen) were used at a 1/10 dilution.
(§2) CDDO-Me. […] Effects of CDDO-Me were also tested on clonogenic AML cells.

[1] = tested on: U937 cells transduced with Bcl-2; experiment: Cytotoxicity in Bcl-2 overexpressing cells; format: cell-based, human
From the text: The inventors also tested if overexpression of the anti-apoptotic protein Bcl-2 protected leukemic cells from CDDO-induced cytotoxicity. For these experiments U937 cells transduced with Bcl-2 were used with empty-vector containing counterparts as controls.
To study if the overexpression of Bcl-2 can protect leukemic cells from CDDO-Me-induced cytotoxicity the inventors used U937 cells transduced with Bcl-2 (Vrana et al., 1999) and their empty-vector containing counterparts. […] However, […] overexpressing Bcl-2 exerted almost complete protection from CDDO-Me killing as determined by annexin V-positivity, Phi-Phi-Lux and CMXRos staining. […] In contrast, in p53-negative HL-60 and HL-60-Dox cells Fas was only not induced but IETD-FMK could also not prevent CDDO-Me-induced cell death, indicating involvement of different mechanisms of apoptotic cell death in these cells (Owen-Schaub et al., 1994). […] Thus, induction of the FasL/Fas/caspase-8 pathway is not essential in the execution of CDDO-Me-induced cell death. Post-translational modifications of Bcl-2 are involved in the regulation of apoptosis by CDDO-Me. Thus, Bcl-2 phosphorylation is inhibited by CDDO-Me.

[2] = From the text: Subacute toxicity studies. An important aspect of this invention of CDDO-compounds and its combination therapies with other chemotherapeutics is to assess the toxicity and relative therapeutic efficacy of CDDO-compounds. The preliminary toxicity (i.e. determination of LD50 and MTD [maximum tolerated dose]) of CDDO-compounds was studied in healthy BALB/C mice (male and female, 25-30 g) after single i. v. or oral injections. Seven different dose levels (10 mice/dose level) were used after the appropriate pilot dosing experiments to define a MTD dose for both the oral and iv routes of administration. Animals were observed and weighed daily. The experiment was terminated on day 14. Surviving animals were sacrificed by exposure to carbon dioxide. The unit-dose effect line will be constructed and used to calculate lethal doses LD10 and LD50).
Determination of MTD. 60 female Balb/C mice divided into 12 groups of 5 mice. With 5 mice per dose level, six dose levels for IV or oral drug administration were used.
(§3) Intravenous CDDO administration. Groups of mice received CDDO intravenously as a single bolus injection into the tail vein on Day 1. […] The typical organs from each mouse that are examined include brain, heart, lungs, spleen, pancreas, kidneys, liver, gastrointestinal tract, lymph nodes, muscle, bone marrow, and skin.
as §3, with “CDDO-Me” for “CDDO”

HL-60 cells = experiment: Differentiation by CD11b/CD14 flow cytometry; format: cell-based, human; settings: for CD11b %: 7 days; for percentage of CD14 (+) live cells (FCM): no ligand
Method: as §1
Enhancement in cellular differentiation using combinations of CDDO with ATRA were tested. […] Cell differentiation was analyzed by flow cytometry (CD14/CD11b staining). […] These experiments were repeated. […]
Finally, the inventors examined if CDDO-Me combined with ATRA would enhance differentiation. […] […] Next, combined treatment with CDDO-Me and RXR-specific ligand were tested for potentiation of anti-leukemic effects.

U937 cells = experiment: Atlas Cancer cDNA array, differential gene expression; format: cell-based, human; settings: 1 μM; CDDO 24 hrs, CDDO-Me 1 hour
Method: The differential expression of a large number of genes involved in apoptosis, proliferation and signal transduction were analyzed utilizing the Atlas Cancer c-DNA array from Clontech (Palo Alto, Calif.). […] The downregulation of 17 genes (over two-fold) was seen, some of these genes were MAPKK5, STAT5A and B, DNA topoisomerase 2, VEGFR1 and VEGF. […] Differential expression of a large number of genes involved in apoptosis, proliferation and signal transduction was also performed for CDDO-Me. […] In preliminary studies, the inventors observed over two-fold downregulation of 23 genes: these include MAPK/ERK2, endothelin2, MLH1. Remarkably, decreased expression of VEGFR1, that potentially mediate pro-angiogenic properties of the leukemic cells, was observed (FIG. 33). […] The cDNA array data require conformation but may indicate what changes in gene expression contribute to the observed anti-leukemic effects of CDDO-Me.

HL-60-Dox cells = experiment: Killing of MDR-1 expressing cells; format: cell-based, human
normal CD34+ cells = experiment: CFU-GM of normal CD34+ cells (CFU-GEMM assay); format: cell-based, human; settings: for CFU-GM generated from normal CD34+ cells detected: n=3
Method: CFU-Granulocyte-Erythroid-Macrophage-Megakaryocyte (CFU-GEMM) Assay. In three experiments, 2×10^5 CD34^+ cells isolated from normal bone marrow (n=1) or G-CSF-stimulated peripheral blood (n=2) were plated in 0.8% methylcellulose with IMDM, 1 U/mL human erythropoietin (Terry Fox Laboratories, Vancouver, Canada), and 50 ng/mL recombinant hGM-CSF. CDDO-Me was added at the initiation of cultures at concentrations ranging from 0.05 to 0.5 μg/mL.
The effect of CDDO on clonogenic AML cells were tested. […] (FIG. 7).
as §2

Structure (SMILES)	AML samples with induced monocytic differentiation (CD14) (primary AML cells)	protection by Bcl-2 overexpression (3-fold) [1]	Diagnoses/observations ([2]; mouse, in vivo, iv, 0.3 mg/kg)	Diagnoses/observations ([2]; mouse, in vivo, iv, 3 mg/kg)	concentration needed to exert similar effect (CD11b+ as 0.1 μM CDDO-Me) (HL-60 cells)	CD11b % (HL-60 cells; 0.1 μM (DMSO control 24.9))	CD11b % (HL-60 cells; 0.3 μM)	percentage of CD14 (+) live cells (FCM) (HL-60 cells; CDDO 0.5 μM)	percentage of CD14 (+) live cells (FCM) (HL-60 cells; CDDO 1 μM)	concentration at which monocytic differentiation was induced (HL-60 cells; HL-60 cells)	number of genes downregulated over two-fold (U937 cells)	number of genes upregulated (U937 cells)	sensitivity of HL-60-Dox cells with high expression of the MDR-1 gene (HL-60-Dox cells)	CFU-GM of normal CD34+ cells inhibited by (normal CD34+ cells; at this concentration (n=3))	Diagnoses/observations ([2]; CDDO-Me IV single bolus, 1.0 mg/kg, 14 days)	Diagnoses/observations ([2]; mouse, in vivo, iv)	CD11b+ cells (HL-60 cells; 0.1 μM)	CD11b+ cells (HL-60 cells; 48 hrs, CDDO-Me 0.1 μM, ATRA 1 μM, alone or simultaneously (DMSO controls 40%))	CFU-GM generated from normal CD34+ cells detected (normal CD34+ cells; 0.1 μM)	CFU-GM generated from normal CD34+ cells detected (normal CD34+ cells; 0.5 μM)
CC1(C)CCC2(C(=O)O)CCC3(C)C(C(=O)C=C4C5(C)C=C(C#N)C(=O)C(C)(C)C5CCC43C)C2C1 (stereo not shown) [CDDO, 2-cyano-3,12-dioxoolen-1,9-dien-28-oic acid]	3/11	did not protect cells from CDDO-killing	Myeloid hyperplasia bone marrow	Myeloid hyperplasia, bone marrow	1 µM	45.0%	75.9%	36.7%	80.4%	0.5 to 1.0 µM	17	7	sensitive to CDDO-induced killing	26.8±4.3%						
COC(=O)[C@]12CCC(C)(C)C[C@H]1[C@H]1C(=O)C=C3[C@@]4(C)C=C(C#N)C(=O)C(C)(C)[C@@H]4CC[C@@]3(C)[C@]1(C)CC2 [CDDO-Me]	2/5	did not protect cells from CDDO-Me-killing									23	Twenty-two	sensitive to CDDO-Me-induced killing		DIED @ 5 minutes	Myeloid hyperplasia bone marrow	86.6%	67.4%	79±5.6%	63.4±1.1%
